# Molecular target: human recombinant H-PGDS (Homo sapiens, UniProt O60760)
# Assay: Fluorescence Intensity h-PGDS TBA Enzyme Assay
# Format: biochemical
# Settings: 1:175,000 human recombinant H-PGDS, highest inhibitor concentration typically 1 μM
# In short: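 Readout is PGH2 depletion: after a 42 s reaction with 5.0 μM PGH2 and 2.5 mM glutathione (pH 8.0 Tris, 10 min inhibitor preincubation), Fe(II) converts leftover PGH2 to MDA, which forms a fluorescent TBA complex. IC50s come from 11-point, 3-fold duplicate curves, 4-parameter fit.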
# human recombinant H-PGDS, sequence (O60760 whole entry): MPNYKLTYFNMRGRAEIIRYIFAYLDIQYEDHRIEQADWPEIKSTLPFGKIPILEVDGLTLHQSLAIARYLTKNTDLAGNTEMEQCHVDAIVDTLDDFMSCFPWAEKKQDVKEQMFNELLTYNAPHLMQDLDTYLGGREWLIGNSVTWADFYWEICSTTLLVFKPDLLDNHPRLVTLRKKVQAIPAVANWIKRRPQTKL
row,SMILES,IC50 [nM]
1,"Cc1cccc(-c2ccc(C(=O)NCC(=O)OCc3ccccc3)cn2)c1 [Example 236, Benzyl N-{[6-(3-methylphenyl)pyridin-3-yl]carbonyl}glycinate]",109
2,"Cc1cccc(-c2ccc(C(=O)NCCc3nc(C)no3)cn2)c1 [Example 233, N-[2-(3-Methyl-1,2,4-oxadiazol-5-yl)ethyl]-6-(3-methylphenyl)nicotinamide]",85.5
3,"O=C(N[C@@H]1C[C@H]2CC[C@@H](C1)N2C(=O)N1CCC(O)CC1)c1ccc(-c2cccc(F)c2)nc1 [Example 596, 6-(3-Fluorophenyl)-N-(3-exo)-8-[(4-hydroxypiperidin-1-ylcarbonyl]-8-azabicyclo[3.2.1]octyl-3-yl}nicotinamide]",11
4,"CN1CCc2nc(N3CCC(NC(=O)c4ccc(-c5cccc(F)c5)nc4)C3)ncc2C1 (centres unmarked) [Example 90, 6-(3-Fluorophenyl)-N-[1-(6-methyl-5,6,7,8-tetrahydropyrido[4,3-d]pyrimidin-2-yl)pyrrolidin-3-yl]nicotinamide]",0.852
5,"O=C(NCc1nncn1C1CCCCC1)c1ccc(-c2cccc(F)c2)nc1 [Example 99, N-[(4-Cyclohexyl-4H-1,2,4-triazol-3-yl)methyl]-6-(3-fluorophenyl)nicotinamide]",31.5
6,"Cc1nc(CNC(=O)c2ccc(-c3cccc(F)c3)nc2)cs1 [Example 69, 6-(3-Fluorophenyl)-N-[(2-methyl-1,3-thiazol-4-yl)methyl]nicotinamide]",23.9
7,"C=CCNC(=O)c1ccc(-c2cccc(F)c2)nc1 [Example 135, N-Allyl-6-(3-fluorophenyl)nicotinamide]",46.5
8,"COCCN1CC(CNC(=O)c2ccc(-c3cccc(F)c3)nc2)CC1=O (centres unmarked) [Example 20, 6-(3-Fluorophenyl)-N-{[1-(2-methoxyethyl)-5-oxopyrrolidin-3-yl]methyl}nicotinamide]",35.1
9,"Cc1cccc(-c2ccc(C(=O)Nc3ccncc3)cn2)c1 [Example 228, 6-(3-Methylphenyl)-N-pyridin-4-ylnicotinamide]",6.51
10,"Cc1ccc2nc(CCNC(=O)c3ccc(-c4cccc(F)c4)nc3)cn2c1 [Example 1, 6-(3-Fluorophenyl)-N-[2-(6-methylimidazo[1,2-a]pyridin-2-yl)ethyl]nicotinamide]",3.54
11,"CCc1csc(CNC(=O)c2ccc(-c3cccc(F)c3)nc2)n1 [Example 61, N-[(4-Ethyl-1,3-thiazol-2-yl)methyl]-6-(3-fluorophenyl)nicotinamide]",5.48
12,"Cc1noc(CCNC(=O)c2ccc(-c3cccc(F)c3)nc2)n1 [Example 181, 6-(3-Fluorophenyl)-N-[2-(3-methyl-1,2,4-oxadiazol-5-yl)ethyl]nicotinamide]",44.6
13,"Cc1noc(C)c1CCCNC(=O)c1ccc(-c2cccc(F)c2)nc1 [Example 91, N-[3-(3,5-Dimethylisoxazol-4-yl)propyl]-6-(3-fluorophenyl)nicotinamide]",6.44
14,"O=C(NCc1ccc[nH]c1=O)c1ccc(-c2cccc(F)c2)nc1 [Example 13, 6-(3-Fluorophenyl)-N-[(2-oxo-1,2-dihydropyridin-3-yl)methyl]nicotinamide]",20.4
15,"Cc1noc([C@H]2CC[C@H](CNC(=O)c3ccc(-c4cccc(F)c4)nc3)CC2)n1 [Example 11, 6-(3-Fluorophenyl)-N-{[trans-4-(3-methyl-1,2,4-oxadiazol-5-yl)cyclohexyl]methyl} nicotinamide]",18.9
16,"O=C(NCCCN1CCCC1=O)c1ccc(-c2cccc(F)c2)nc1 [Example 156, 6-(3-Fluorophenyl)-N-[3-(2-oxopyrrolidin-1-yl)propyl]nicotinamide]",15.7
17,"CCOC(=O)CCCNC(=O)c1ccc(-c2cccc(F)c2)nc1 [Example 192, Ethyl 4-({[6-(3-fluorophenyl)pyridin-3-yl]carbonyl}amino)butanoate]",9.04
18,"COc1cccc(-c2ccc(C(=O)NCC3CCCCO3)cn2)c1 (centres unmarked) [Example 284, 6-(3-Methoxyphenyl)-N-(tetrahydro-2H-pyran-2-ylmethyl)nicotinamide]",519
19,"Cc1ncsc1CCCNC(=O)c1ccc(-c2cccc(F)c2)nc1 [Example 85, 6-(3-Fluorophenyl)-N-[3-(4-methyl-1,3-thiazol-5-yl)propyl]nicotinamide]",4.88
20,"O=C(Nc1ccccc1)c1ccc(-c2ccc(F)cc2)nc1 [Example 256, 6-(4-Fluorophenyl)-N-phenylnicotinamide]",145
21,"CN1CCc2nc(N3CCC(CNC(=O)c4ccc(-c5cccc(F)c5)nc4)CC3)ncc2C1 [Example 10, 6-(3-Fluorophenyl)-N-{[1-(6-methyl-5,6,7,8-tetrahydropyrido[4,3-d]pyrimidin-2-yl)piperidin-4-yl]methyl}nicotinamide]",26.9
22,"COC(C)(C)CNC(=O)c1ccc(-c2cccc(C)c2)nc1 [Example 232, N-(2-Methoxy-2-methylpropyl)-6-(3-methylphenyl)nicotinamide]",137

# The next lines start with the values.
row,IC50 [nM],SMILES
1,8.8,"O=C(NCCNc1ccccc1)c1ccc(-c2ccccc2)nc1 [Example 520, N-(2-Anilinoethyl)-6-phenylnicotinamide]"
2,11.2,"O=C(NC1CCN(Cc2ccc(Cl)cc2)C1=O)c1ccc(-c2ccccc2)nc1 (centres unmarked) [Example 377, N-[1-(4-Chlorobenzyl)-2-oxopyrrolidin-3-yl]-6-phenylnicotinamide]"
3,98.4,"O=C(NCC1COc2ccccc2C1)c1cnc(-c2cccc(F)c2)c(Cl)c1 (centres unmarked) [Example 547, 5-Chloro-N-(3,4-dihydro-2H-chromen-3-ylmethyl)-6-(3-fluorophenyl)nicotinamide]"
4,140,"Cc1cccc(-c2ccc(C(=O)NC(C)c3ccncn3)cn2)c1 (centres unmarked) [Example 319, 6-(3-Methylphenyl)-N-(1-pyrimidin-4-ylethyl)nicotinamide]"
5,8.76,"CC(NC(=O)c1ccc(-c2cccc(F)c2)nc1)c1ccccc1 (centres unmarked) [Example 423, 6-(3-Fluorophenyl)-N-(1-phenylethyl)nicotinamide]"
6,1.66,"O=C(Nc1cccnc1)c1ccc(-c2ccccc2)nc1 [Example 354, 6-Phenyl-N-pyridin-3-ylnicotinamide]"
7,975,"COc1cccc(-c2ccc(C(=O)NCC(=O)N(C)C)cn2)c1 [Example 343, N-[2-(Dimethylamino)-2-oxoethyl]-6-(3-methoxyphenyl)nicotinamide]"
8,4.79,"O=C(NCc1ccco1)c1ccc(-c2ccccc2)nc1 [Example 379, N-(2-Furylmethyl)-6-phenylnicotinamide]"
9,25.5,"O=C(NCCN1CCNC1=O)c1ccc(-c2ccccc2)nc1 [Example 375, N-[2-(2-Oxoimidazolidin-1-yl)ethyl]-6-phenylnicotinamide]"
10,86.1,"COc1ccc(C(CNC(=O)c2ccc(-c3ccccc3)nc2)N2CCOCC2)cc1 (centres unmarked) [Example 400, N-[2-(4-Methoxyphenyl)-2-morpholin-4-ylethyl]-6-phenylnicotinamide]"
11,10.6,"COc1ccc(CNC(=O)c2ccc(-c3cc(F)cc(F)c3)nc2)cc1OC [Example 567, 6-(3,5-Difluorophenyl)-N-(3,4-dimethoxybenzyl)nicotinamide]"
12,365,"COc1cccc(-c2ccc(C(=O)NCc3ccc(S(N)(=O)=O)cc3)cn2)c1 [Example 481, N-[4-(Aminosulfonyl)benzyl]-6-(3-methoxyphenyl) nicotinamide]"
13,8.9,"O=C(NCc1ccc(Br)cc1)c1ccc(-c2ccccc2)nc1 [Example 513, N-(4-Bromobenzyl)-6-phenylnicotinamide]"
14,60.8,"O=C(NCCN1CCOCC1)c1cnc(-c2cccc(F)c2)c(Cl)c1 [Example 552, 5-Chloro-6-(3-fluorophenyl)-N-(2-morpholin-4-ylethyl)nicotinamide]"
15,77.1,"COc1cccc(-c2ccc(C(=O)NCc3ccccc3C)cn2)c1 [Example 333, 6-(3-Methoxyphenyl)-N-(2-methylbenzyl)nicotinamide]"
16,103,"O=C(NCc1ccc(Br)cc1)c1ccc(-c2cccc(F)c2)nc1 [Example 408, N-(4-Bromobenzyl)-6-(3-fluorophenyl)nicotinamide]"
17,15.7,"CN1CCC(CCNC(=O)c2ccc(-c3ccccc3)nc2)CC1 [Example 388, N-[2-(1-Methylpiperidin-4-yl)ethyl]-6-phenylnicotinamide]"
18,2.63,"O=C(NCC1C(=O)Nc2ccccc21)c1ccc(-c2cc(F)cc(F)c2)nc1 (centres unmarked) [Example 568, 6-(3,5-Difluorophenyl)-N-[(2-oxo-2,3-dihydro-1H-indol-3-yl)methyl]nicotinamide]"
19,9.3,"COC(=O)[C@H](Cc1ccc(Cl)cc1)NC(=O)c1ccc(-c2ccccc2)nc1 [Example 369, Methyl 4-chloro-N-[(6-phenylpyridin-3-yl)carbonyl]phenylalaninate]"
20,209,"COc1cccc(-c2ccc(C(=O)NC3CCN(Cc4ccc(Cl)c(Cl)c4)C3=O)cn2)c1 (centres unmarked) [Example 296, N-[1-(3,4-Dichlorobenzyl)-2-oxopyrrolidin-3-yl]-6-(3-methoxyphenyl)nicotinamide]"
21,≥ 1000,"O=C(NCC1CCCCO1)c1ccc(-c2ccc(F)cc2)nc1 (centres unmarked) [Example 498, 6-(4-Fluorophenyl)-N-(tetrahydro-2H-pyran-2-ylmethyl)nicotinamide]"
22,597,"O=C(NCCCN1CCCC1=O)c1ccc(-c2ccc(F)cc2)nc1 [Example 327, 6-(4-Fluorophenyl)-N-[3-(2-oxopyrrolidin-1-yl)propyl]nicotinamide]"
23,25,"O=C(NCc1ccc(Cl)c(Cl)c1)c1ccc(-c2ccccc2)nc1 [Example 522, N-(3,4-Dichlorobenzyl)-6-phenylnicotinamide]"
24,16.6,"CCCCNC(=O)c1ccc(-c2ccccc2)nc1 [Example 368, N-Butyl-6-phenylnicotinamide]"
25,528,"COc1cccc(-c2ccc(C(=O)NCCN3CCOC3=O)cn2)c1 [Example 298, 6-(3-Methoxyphenyl)-N-[2-(2-oxo-1,3-oxazolidin-3-yl)ethyl]nicotinamide]"
